Patent US20210253567A1, “AMORPHOUS AND CRYSTALLINE FORMS OF VALBENAZINE SALT” (SUZHOU PENGXU PHARMATECH CO., LTD., priority 2018, published 2021)

Legend:
[1] = Stability HPLC data summary of Form A1 of valbenazine oxalate (appearance, assay, HPLC, chiral HPLC, moisture on storage); assay type: physicochemical; conditions: 2~8° C.; for Appearance: double PE bags sealed in laminated aluminum foil bag
Description: Stability Data of Form A1 of Valbenazine Oxalate [table]

[2] = Stability of valbenazine salts, general statement

Substance: valbenazine oxalate [Form A1 of valbenazine oxalate]
- Assay (Anhydrous) ([1]; 0 months): 100.1%
- Chiral HPLC Chiral imp-1 ([1]; 0 months): 0.01%
- Chiral HPLC Chiral imp-2 ([1]; 0 months): 0.04%
- Chiral HPLC Chiral imp-3 ([1]; 0 months): 0.03%
- Chiral HPLC Valbenazine ([1]; 0 months): 99.93%
- HPLC Imp-1 (LSI) ([1]; 0 months): 0.03%
- HPLC Imp-2 ([1]; 0 months): 0.01%
- HPLC Imp-3 ([1]; 0 months): 0.02%
- HPLC Imp-4 ([1]; 0 months): 0.02%
- HPLC Imp-5 ([1]; 0 months): 0.01%
- HPLC Imp-7 ([1]; 0 months): 0.01%
- HPLC Valbenazine ([1]; 0 months): 99.81%
- Moisture ([1]; 0 months): 0.12%
- Assay (Anhydrous) ([1]; 0.5 months): 100.8%
- Chiral HPLC Chiral imp-1 ([1]; 0.5 months): 0.01%
- Chiral HPLC Chiral imp-2 ([1]; 0.5 months): 0.04%
- Chiral HPLC Chiral imp-3 ([1]; 0.5 months): 0.03%
- Chiral HPLC Valbenazine ([1]; 0.5 months): 99.93%
- HPLC Imp-1 (LSI) ([1]; 0.5 months): 0.03%
- HPLC Imp-3 ([1]; 0.5 months): 0.03%
- HPLC Imp-5 ([1]; 0.5 months): 0.01%
- HPLC Imp-7 ([1]; 0.5 months): 0.02%
- HPLC Valbenazine ([1]; 0.5 months): 99.84%
- Moisture ([1]; 0.5 months): 0.2%
- Assay (Anhydrous) ([1]; 1 months): 101.0%
- Chiral HPLC Chiral imp-1 ([1]; 1 months): 0.01%
- Chiral HPLC Chiral imp-2 ([1]; 1 months): 0.04%
- Chiral HPLC Valbenazine ([1]; 1 months): 99.95%
- HPLC Imp-1 (LSI) ([1]; 1 months): 0.03%
- HPLC Imp-2 ([1]; 1 months): 0.01%
- HPLC Imp-3 ([1]; 1 months): 0.02%
- HPLC Imp-4 ([1]; 1 months): 0.01%
- HPLC Imp-5 ([1]; 1 months): 0.01%
- HPLC Imp-7 ([1]; 1 months): 0.01%
- HPLC Valbenazine ([1]; 1 months): 99.84%
- Moisture ([1]; 1 months): 0.19%
- Assay (Anhydrous) ([1]; 3 months): 100.33%
- Chiral HPLC Chiral imp-1 ([1]; 3 months): 0.01%
- Chiral HPLC Chiral imp-2 ([1]; 3 months): 0.07%
- Chiral HPLC Chiral imp-3 ([1]; 3 months): 0.02%
- Chiral HPLC Valbenazine ([1]; 3 months): 99.91%
- HPLC Imp-1 (LSI) ([1]; 3 months): 0.04%
- HPLC Imp-2 ([1]; 3 months): 0.02%
- HPLC Imp-3 ([1]; 3 months): 0.04%
- HPLC Imp-4 ([1]; 3 months): 0.03%
- HPLC Imp-5 ([1]; 3 months): 0.02%
- HPLC Imp-7 ([1]; 3 months): 0.01%
- HPLC Valbenazine ([1]; 3 months): 99.78%
- Moisture ([1]; 3 months): 0.4%
- Appearance ([1]; 0 months): White
- Appearance ([1]; 0.5 months): White solid
- Appearance ([1]; 1 months): White solid
- Appearance ([1]; 3 months): White solid
- stability (in words) [2]: good stability
